# Where “and” joins values, the source holds several entries; their conditions need not be identical. Equal entries are not always repeated. Where two headings read alike, the source gives them in different places.
# Legend:
# [1] = bone marrow vs plasma; cited from earlier work
# [2] = given i.v. at the same dosage; cited from earlier work
# CDK = tested on: CDK; parameters: method as in PMID 18574471; settings: in-vitro; cited from earlier work
# [3] = Biodistribution of CR8 to mouse organs after oral administration; type: in vivo, mice; parameters: V2/F: unit not given here; settings: for AUC / Beta-HL / V2/F / Cmax: single oral 100 mg/kg; for Tissue/plasma exposure ratio (% AUC organ vs. AUC plasma) / Kp: oral 100 mg/kg, 100 mg/kg; for Kp / Cmax: female, BALB/c, mouse; for Kp: po
# Description: CR8 was dissolved in DMSO: 50 mM HCl (10:90 v/v). The first group of mice received i.v. doses of CR8 (50 mg/kg body weight), the second received oral doses of CR8 (100 mg/kg body weight) and three control mice received vehicle alone. […] Supernatants were collected and all samples were frozen at −20°C directly after preparation until further analysis by HPLC. Other organs including liver, spleen, kidneys, brain, adipose tissue and lungs were removed, washed and snap frozen immediately in liquid nitrogen. Bone marrow was flushed from both femurs and mononuclear cells were counted and frozen. The samples were stored at −20°C to avoid any metabolic activity. […] Femurs were removed and cleaned; bone marrow was flushed with 0.3 ml of PBS and single cell suspension was prepared by gentle flushing through needle and syringe. Nucleated cells were counted using Türk solution and bone marrow was stored at −20°C until assay. Parameters including distribution volume of the central compartment, elimination rate constant, plasma maximum concentration and micro constants were estimated. Clearance (Cl) and distribution volume at the steady state were calculated from the primary parameters. The plasma concentration versus time curves (AUC) were calculated from the model derived parameters, and the elimination half-lives were calculated from the slope of the terminal elimination phase. Bone marrow data were derived after adjustment of concentrations to 10^9 cells (= approx. 1 g of tissue). The pharmacokinetic modeling was performed using WinNonlin version 5.2 (Pharsight, USA).
# [4] = Pharmacokinetics of CR8 in mouse plasma after oral and i.v. administration (HPLC-UV); type: in vivo, mice
# Description: 70 μl plasma was added to 140 μl methanol and vortexed for 15 sec. Samples were centrifuged at 10000 g for 10 minutes, and 50 μl from the supernatant were injected into the HPLC system.
# Female BALB/c mice 8–10 weeks old and weighing 18–21 g were obtained from Scanbur, Sollentuna, Sweden. The mice were allowed to acclimatize to their surroundings for one week before starting treatment. The mice were fed pelleted food and water ad libitum.
# CR8 was dissolved in DMSO: 50 mM HCl (10:90 v/v). The first group of mice received i.v. doses of CR8 (50 mg/kg body weight), the second received oral doses of CR8 (100 mg/kg body weight) and three control mice received vehicle alone. Three mice were sacrificed at each time point and blood samples were collected by cardiac puncture into heparinized tubes at 10, 20, 30, 60 min, 2, 4, 6, 8 h post administration. Blood samples were centrifuged immediately after collection at 3000 g for 5 min at 4°C and the plasma was prepared as mentioned previously. Supernatants were collected and all samples were frozen at −20°C directly after preparation until further analysis by HPLC. Other organs including liver, spleen, kidneys, brain, adipose tissue and lungs were removed, washed and snap frozen immediately in liquid nitrogen. Bone marrow was flushed from both femurs and mononuclear cells were counted and frozen. The samples were stored at −20°C to avoid any metabolic activity.
# Parameters including distribution volume of the central compartment, elimination rate constant, plasma maximum concentration and micro constants were estimated. Clearance (Cl) and distribution volume at the steady state were calculated from the primary parameters. The plasma concentration versus time curves (AUC) were calculated from the model derived parameters, and the elimination half-lives were calculated from the slope of the terminal elimination phase. Bone marrow data were derived after adjustment of concentrations to 10^9 cells (= approx. 1 g of tissue). The pharmacokinetic modeling was performed using WinNonlin version 5.2 (Pharsight, USA).
# Oral bioavailability (F) defined as the fraction of the oral administered dose of CR8 that reaches the systemic circulation was calculated according to the following formula:
# F=AUCpo∗doseIV/AUCIV∗dosepo
# [5] = Stability of CR8 in plasma quality control samples and solution; type: physicochemical, human
# Description: Four quality control samples at concentrations of 0.75, 1.5, 3.5 and 7.0 μg/ml were also prepared in triplicate and stored at room temperature, +4°C and −20°C for stability testing.
# The stability of CR8 was determined in plasma samples using concentrations of 0.75, 1.5, 3.5 and 7.0 μg/ml (in triplicate). The samples were kept at room temperature, +4°C and −20°C and analyzed twice weekly for 2 months. Peak areas of all the samples were compared to peak areas obtained at time zero.
# CDK5/p25 = tested on: CDK5/p25; parameters: method as in PMID 18574471; settings: cited from earlier work
# tumor cell lines = settings: cited from earlier work
# casein kinase 1 (CK1) = biological target: casein kinase 1 (CK1); parameters: method as in PMID 18574471; settings: cited from earlier work
smiles,measurement,setting,value
CC[C@H](CO)Nc1nc(NCc2ccccc2)c2ncn(C(C)C)c2n1 [roscovitine],Distribution to bone marrow,[1],1.5%
same,Reported half-life,[2],approximately 1 hour
CC[C@H](CO)Nc1nc(NCc2ccc(-c3ccccn3)cc2)c2ncn(C(C)C)c2n1 [CR8],Potency as CDK inhibitor relative to roscovitine,CDK,2–4 fold
same,AUC,[3]; Adipose tissue,181 µg·h/g
same,Beta-HL,[3]; Adipose tissue,2.40 h
same,V2/F,[3]; Adipose tissue,38.2
same,AUC,[3]; Bone marrow (10^9 cells = approx. 1 g),34 µg·h/g
same,Beta-HL,[3]; Bone marrow,1.98 h
same,V2/F,[3]; Bone marrow,84.5
same,AUC,[3]; Brain,14 µg·h/g
same,Beta-HL,[3]; Brain,2.12 h
same,V2/F,[3]; Brain,447.5
same,AUC,[3]; Kidney,145 µg·h/g
same,Beta-HL,[3]; Kidney,2.62 h
same,V2/F,[3]; Kidney,52.2
same,AUC,[3]; Liver,197 µg·h/g
same,Beta-HL,[3]; Liver,2.43 h
same,V2/F,[3]; Liver,35.8
same,AUC,[3]; Lung,77 µg·h/g
same,Beta-HL,[3]; Lung,2.58 h
same,V2/F,[3]; Lung,96.7
same,AUC,[3]; Spleen,40 µg·h/g
same,Beta-HL,[3]; Spleen,2.60 h
same,V2/F,[3]; Spleen,74.5
same,Tissue/plasma exposure ratio (% AUC organ vs. AUC plasma),[3]; adipose tissue,180%
same,Kp,"[3]; adipose tissue, adipose tissue, read-out: Tissue/plasma exposure ratio (% AUC organ vs. AUC plasma)",1.88
same,Kp,"[3]; bone marrow, bone marrow, concentrations normalized to tissue weight/g, read-out: Tissue/plasma exposure ratio (% AUC organ vs. AUC plasma)",0.3
same,Kp,"[3]; brain, brain, read-out: Tissue/plasma exposure ratio (% AUC organ vs. AUC plasma; concentration in brain vs plasma)",0.15
same,Kp,"[3]; kidney, kidney, read-out: Tissue/plasma exposure ratio (% AUC organ vs. AUC plasma)",1.5
same,Kp,"[3]; liver, liver, read-out: Tissue/plasma exposure ratio (% AUC organ vs. AUC plasma)",2.05
same,Kp,"[3]; lung, lung, read-out: Tissue/plasma exposure ratio",0.8
same,Kp,"[3]; spleen, spleen, read-out: Tissue/plasma exposure ratio",0.5
same,Cmax,[3]; Adipose tissue,48700 ng/g
same,Cmax,[3]; Bone marrow,10600 ng/g
same,Cmax,[3]; Brain,4100 ng/g
same,Cmax,[3]; Kidney,36000 ng/g
same,Cmax,[3]; Liver,52400 ng/g
same,Cmax,[3]; Lung,19300 ng/g
same,Cmax,[3]; Spleen,27700 ng/g
same,Tissue/plasma exposure ratio (% AUC organ vs. AUC plasma),[3]; liver,200%
same,Beta-HL,"[4]; Plasma, single oral 100 mg/kg",3.10 h
same,V2/F,"[4]; Plasma, single oral 100 mg/kg",21.0
same,half-life,"[4]; female, BALB/c, mouse, plasma, female BALB/c mice, read-out: Half-life (converted)",~3 h
same,AUC,"[4]; female, BALB/c, mouse, plasma, iv, 50 mg/kg, plasma, 50 mg/kg intravenously, read-out: AUC",~45000 ng·h/mL
same,Cmax,"[4]; female, BALB/c, mouse, plasma, iv, 50 mg/kg, plasma, i.v. bolus 50 mg/kg, estimated, read-out: Cmax (maximum reached concentration)",> 100000 ng/mL
same,AUC,"[4]; female, BALB/c, mouse, plasma, iv, 50 mg/kg, plasma, i.v. bolus 50 mg/kg, mice, read-out: AUC (area under time plasma concentration curve)",44400 ± 3300 ng·h/mL
same,half-life,"[4]; female, BALB/c, mouse, plasma, iv, 50 mg/kg, plasma, i.v. bolus 50 mg/kg, read-out: Tα (first elimination half-life) (converted)",0.11 ± 0.01 h
same,half-life,"[4]; female, BALB/c, mouse, plasma, iv, 50 mg/kg, plasma, i.v. bolus 50 mg/kg, read-out: Tβ (terminal elimination half-life) (converted)",2.95 ± 0.11 h
same,clearance,"[4]; female, BALB/c, mouse, plasma, iv, i.v. bolus 50 mg/kg, read-out: CL (clearance) (converted)",0.383 mL/min
same,Vd,"[4]; female, BALB/c, mouse, plasma, iv, i.v. bolus 50 mg/kg, read-out: Vss (distribution volume at steady state)",0.044 ± 0.004 L
same,half-life,"[4]; female, BALB/c, mouse, plasma, mice, read-out: Elimination half-life (converted)",~3 h
same,bioavailability,"[4]; female, BALB/c, mouse, plasma, oral, 100 mg/kg, oral 100 mg/kg vs i.v. 50 mg/kg, F=AUCpo*doseIV/AUCIV*dosepo",~100%
same,Tmax,"[4]; female, BALB/c, mouse, plasma, oral, 100 mg/kg, mice, read-out: Time of maximum concentrations (converted)",0.5 h
same,AUC,"[4]; female, BALB/c, mouse, plasma, po, 100 mg/kg, Plasma, single oral 100 mg/kg, read-out: AUC",96000 ng·h/mL
same,Cmax,"[4]; female, BALB/c, mouse, plasma, po, 100 mg/kg, Plasma, single oral 100 mg/kg, read-out: Cmax",34300 ng/mL
same,AUC,"[4]; female, BALB/c, mouse, plasma, po, 100 mg/kg, plasma, 100 mg/kg orally, read-out: AUC",~100000 ng·h/mL
same,AUC,"[4]; female, BALB/c, mouse, plasma, po, 100 mg/kg, plasma, single oral 100 mg/kg, mice, read-out: AUC (area under time plasma concentration curve)",96300 ± 10500 ng·h/mL
same,Cmax,"[4]; female, BALB/c, mouse, plasma, po, 100 mg/kg, plasma, single oral 100 mg/kg, read-out: Cmax (maximum reached concentration)",34300 ± 1940 ng/mL
same,half-life,"[4]; female, BALB/c, mouse, plasma, po, 100 mg/kg, plasma, single oral 100 mg/kg, read-out: Tα (first elimination half-life) (converted)",1.3 ± 0.43 h
same,half-life,"[4]; female, BALB/c, mouse, plasma, po, 100 mg/kg, plasma, single oral 100 mg/kg, read-out: Tβ (terminal elimination half-life) (converted)",3.1 ± 0.35 h
same,Cmax after i.v. compared to oral administration,[4]; i.v. 50 mg/kg vs oral 100 mg/kg,4 fold
same,CL (clearance),[4]; single oral 100 mg/kg,21 ± 2 mL/h
same,Vss (distribution volume at steady state),[4]; single oral 100 mg/kg,21 ± 3 mL
same,Stability (concentration of QC samples remaining vs time zero),"[5]; plasma QC samples, 2 months at room temperature, +4°C or −20°C",approximately 97 ± 3.5%
same,Time for which stable,"[5]; room temperature, in both solution and plasma",2 months
same,IC50,CDK5/p25,120 nM
same,IC50,"tumor cell lines; different cell lines, read-out: Optimal concentration for pharmacological effect in-vitro in different cell lines (reported average IC50)",~700 nM and 700 nM
same,Anti-tumor IC50 values found in-vitro,"tumor cell lines; in-vitro, reference not given",0.3 µg/mL
same,IC50,casein kinase 1 (CK1),610 nM

# Source: publication PMC3849647, “Pharmacokinetics and biodistribution of the cyclin-dependent kinase inhibitor -CR8- in mice” (BMC Pharmacology & Toxicology, 2013)
